Reference: patent US20140113958A1, “HCV Combination Therapy” (priority 2011, published 2014)
“Also recorded” adds a separate entry of the source. Read-outs that look alike come from different tables or passages of the source.

Tests used:
Huh-luc/neo-ET cells = assay: Cellular toxicity by XTT dye reduction in Huh-luc/neo-ET cells
Protocol: The anti-viral efficacy and cellular toxicity of non-transfected antimiR oligonucleotide in combination with approved and experimental anti-HCV therapeutics (e.g. NM283, 2′-C-methylcytidine, and/or VX-222) (or other NS5B polymerase inhibitors) was determined in the reporter cell line Huh-luc/neo-ET. This cell line harbors the persistently replicating I389luc-ubi-neo/NS3-3′/ET replicon containing the firefly luciferase gene-ubiquitin-neomycin phosphotransferase fusion protein and EMCV IRES driven NS3-5B HCV coding sequences containing the ET tissue culture adaptive mutations (E1202G, T1208I, and K1846T). Eight dilutions of non-transfected antimiR oligonucleotide (bracketing the calculated EC50) were evaluated in triplicate on duplicate sets of three plates with five dilutions of each of the control compounds (bracketing the calculated EC50). One set of plates was used for the determination of cellular toxicity and the other set of plates was used for the determination of anti-viral efficacy. The efficacy and toxicity results was quantified with firefly luciferase activity and XTT dye reduction, respectively, and the results of the assay is imported into the Prichard and Shipman MacSynergy II software program. The MacSynery II analysis includes calculation of the dose response of the two (or more) compounds when used alone followed by calculation of the expected additive level of antiviral inhibition or toxicity when the compounds are used together based on the individual dose response curves. The expected level of activity at each of the concentration data points was compared to the experimentally determined antiviral activity in the assay. The expected activity was subtracted from the realized activity, yielding a negative, zero or positive value. These values are plotted as a three dimensional representation of the data and the result is reported as a two-factor value, expressing the combined average above the expected level of activity (synergy volume) and the combined average below the expected level of activity (antagonism volume). Combination analysis was performed two or more times for each pair of test compound and control substance.
The reporter cell line Huh-luc/neo-ET was obtained from Dr. Ralf Bartenschlager (Department of Molecular Virology, Hygiene Institute, University of Heidelberg, Germany) by ImQuest BioSciences. This cell line harbors the persistently replicating 1389luc-ubi-neo/NS3-3′IET replicon containing the firefly luciferase gene-ubiquitinneomycin phosphotransferase fusion protein and EMCV IRES driven NS3-5B HCV coding sequences containing the ET tissue culture adaptive mutations (E 1202G, T12081, and KI846T). A stock culture of the Huh-luc/neo-ET was expanded by culture in DMEM supplemented with 10% FBS, 2 mM glutamine, penicillin (100 IU/mL)/streptomycin (100 f·Ig/mL) and IX nonessential amino acids plus I mg/ml G418. Prior to plating, the cells were split 1:4 and cultured for two passages in the same medium plus 250 f·Ig/mL G418. The cells were treated with trypsin and enumerated by staining with trypan blue and seeded into 96-well tissue culture plates at a cell culture density 5.0×10^3 cells per well in a volume of 85 f·IL per well and incubated at […] in an environment of 5% CO2 for 24 hours. Six plates were established for the determination of combination efficacy (EC50) and cytotoxicity (TC50) for each of the compound combinations (three plates each for efficacy and toxicity). […]

[1] = test system: HCV genotype 1b replicon NS3 A156T; assay type: cell-based; details: EC50 mutant / EC50 wild-type, mean of two experiments (individual values)
Protocol: (§1) The in vitro antiviral of miravirsen was evaluated against wild-type HCV genotype 1b replicon and HCV genotype 1b replicons constructed to contain key amino acid substitutions in NS3 protease (A156T, R155K), NS5B polymerase (S282T, M423I) and NS5A protein (Y93H) in transient transfection assays utilizing Huh 7 cells. […] Huh 7 cells were transfected with either the wild-type or the mutant RNA constructs by electroporation. Luciferase activity was measured 72 hours after compound treatment and EC50 values determined from dose-response curves. Fold resistance was expressed as the ratio of the EC50 for mutant HCV replicon to the EC50 for wild-type HCV replicon.
(§2) The in vitro antiviral of miravirsen was evaluated against wild-type HCV genotype 1b replicon and HCV replicons constructed to contain key amino acid substitutions in NS3 protease (A156T, R155K), NS5B polymerase (S282T, M423I) and NS5A protein (Y93H) in transient transfection assays. […] Huh 7 cells were transfected with either the wild type or the mutant RNA constructs by electroporation. Luciferase activity was measured 72 hours after compound treatment and EC50 values determined from dose-response curves. Fold resistance was expressed as the ratio of the EC50 for mutant HCV replicon to the EC50 for wild-type HCV replicon. Results are expressed as the mean of two individual experiments. In an initial set of experiments, the standard protocol was modified by adding compounds 24 hours after electroporation. […] In a third experiment cells were pretreated with miravirsen for 24 hours before electroporation with wild-type RNA constructs to determine if preincubation could result in increased miravirsen antiviral activity.

[2] = test system: HCV genotype 1b replicon NS3 R155K; assay type: cell-based; details: EC50 mutant / EC50 wild-type, mean of two experiments (individual values)
Protocol: as §1, §2

[3] = test system: HCV genotype 1b replicon NS5B S282T; assay type: cell-based; details: EC50 mutant / EC50 wild-type; mean of two experiments (individual values)
Protocol: as §1, §2

[4] = test system: Huh-luc/neo-ET HCV genotype Ib replicon cells; assay type: cell-based; details: for rate of cell expansion / resistant clonal populations: selection with G418, 28 days; for resistant clonal populations: crystal violet
Protocol: Cell culture and Assay setup: The reporter cell line Huh-luc/neo-ET was obtained and prepare as described previously. Cells were plated into 10 cm tissue culture dishes at a density of 3×10^5 cells per plate in culture medium containing 250 μg/ml G418 and incubated for 24 hours at 37° C. in an environment of 5% C02. Following the 24 hour incubation, dilutions of SPC3649, SPC4729, or telaprevir were prepared in cell culture medium (as above) with 750 μg/ml G418. Each of the dilutions was added to duplicate plates and the plates were incubated at 37° C. in an environment of 5% CO^2. Two additional plates received cell culture medium with 750 μg/ml G418 as a no-treatment control. […] The final concentration of SPC4729 was 10.0 μM. […] Following 28 days of passage, one set of dishes was stained with crystal violet and the other set of plates was utilized for expansion and establishment of resistant cell culture stocks.
Huh-luc/neo-ET HCY genotype Ib replicon cells were cultured under selective pressure in the presence of 750 μg/mL G4 I8 with and without four independent fixed concentrations of SPC3649 anti-miR oligonucleotide, or telaprevir, or one concentration of scrambled oligonucleotide SPC4729 for 28 days in tissue culture plates. Duplicate tissue culture dishes were established and maintained for each culture condition. Medium was replaced bi-weekly during the 28 days of culture and the cells were split at the time of medium replenishment to maintain a confluent cell culture monolayer. Following four weeks in culture, cells were either fixed with methanol and stained with crystal violet or expanded for subsequent phenotypic and genotypic characterization.

[5] = in combination with ribavirin, 95% confidence level
[6] = second drug in combination with miravirsen (SPC3649), 95% confidence interval, median or individual values

Molecule: CCC[C@H](NC(=O)[C@@H]1[C@H]2CCC[C@H]2CN1C(=O)[C@@H](NC(=O)[C@@H](NC(=O)c1cnccn1)C1CCCCC1)C(C)(C)C)C(=O)C(=O)NC1CC1 [Telaprevir, (1S,3aR,6aS)-2-[(2S)-2-[[(2S)-2-Cyclohexyl-2-(pyrazine-2-carbonylamino)acetyl]amino]-3,3-dimethylbutanoyl]-N-[(3S)-1-(cyclopropylamino)-1,2-dioxohexan-3-yl]-3,3a,4,5,6,6a-hexahydro-1H-cyclopenta[c]pyrrole-1-carboxamide]
- impact of combination on in vitro cytotoxicity (Huh-luc/neo-ET cells; in combination with ribavirin): antagonistic interaction
- Cytotoxicity, Antag Vol (Huh-luc/neo-ET cells; [5]): −50.9 μM^2%
- Cytotoxicity, Synergy vol (Huh-luc/neo-ET cells; [5]): 0.00 μM^2%
- Cytotoxicity, Antagonism vol (Huh-luc/neo-ET cells; [6]): −5.05 μM^2%
- Cytotoxicity, Synergy vol (Huh-luc/neo-ET cells; [6]): 0 μM^2%
- fold change in susceptibility, NS3 A156T [1]: 36.1 (46.9, 25.2) fold
- fold change in susceptibility, NS3 A156T ([1]; listed as telaprevir): 36.1 fold
- fold change in susceptibility, NS3 R155K [2]: 4.6 (5.0, 4.2) fold
- fold change in susceptibility, NS3 R155K ([2]; listed as telaprevir): 4.6 fold
- fold change in susceptibility, NS5B S282T [3]: 1.0 (1.0, 1.0) fold
- Cell split ratio ([4]; 1.50 μM plus G418, day 15): N.S.
- Cell split ratio ([4]; 1.50 μM plus G418, day 22): N.S.
- Cell split ratio ([4]; 3.00 μM plus G418, day 15): N.S.
- Cell split ratio ([4]; 3.00 μM plus G418, day 18): N.S.
- Cell split ratio ([4]; 3.00 μM plus G418, day 22): N.S.
- Cell split ratio ([4]; 3.00 μM plus G418, day 25): N.S.
- Cell split ratio ([4]; 6.00 μM plus G418, day 11): N.S.
- Cell split ratio ([4]; 6.00 μM plus G418, day 15): N.S.
- Cell split ratio ([4]; 6.00 μM plus G418, day 18): N.S.
- Cell split ratio ([4]; 6.00 μM plus G418, day 22): N.S.
- Cell split ratio ([4]; 6.00 μM plus G418, day 25): N.S.
- rate of cell expansion [4]: dose-dependent decrease in the rate of cell expansion
- resistant clonal populations [4]: production of distinct individual resistant clonal populations

Molecule: 5′-^mCs^ocsAs^otstsGs^oTs^ocsas^mCs^oas^mCs^ots^mCs^omC^o-3′ (CCATTGTCACACTCC; all phosphorothioate, sugars by position and methylation of C not given here; further chemistry not fully specified) [miravirsen]
- CC50 (Huh-luc/neo-ET cells; read-out: CC50 (+/−SD), tested alone): > 158 µM
- fold change in susceptibility, NS3 A156T [1]: 1.0 (1.4, 0.5) fold
- fold change in susceptibility, NS3 R155K [2]: 1.2 (1.9, 0.4) fold
- fold change in susceptibility, NS5B S282T [3]: 1.9 (2.6, 1.1) fold
- rate of cell expansion [4]: decrease in the rate of cell expansion
- resistant clonal populations ([4]; listed as SPC3649): failed to produce distinct individual resistant clonal populations; also recorded: distinct individual resistant clonal populations were not produced
